Active and inactive are the calls of the source. No rule for the calls is given here.
Tested on: methionyl-tRNA synthetase (Trypanosoma brucei brucei)
Experiment: T. brucei MetRS aminoacylation inhibitors, late-stage follow-up, counter-screen for T. brucei MetRS inhibitor project, biochemical, radioactivity, assay provider (AID 720623)
Conditions: Recombinant T. brucei MetRS enzyme, [3H]methionine tRNA aminoacylation, filter scintillation, 120 min, stronger effect = higher value

inhibition (at 10 µM)	inhibition (inhibition, at 1 µM) [%]	SMILES
94.3%	51.6	O=C(NCc1nc2ccccc2[nH]1)C1=C[C@H](c2ccc(Br)cc2)C[C@H](OCCCCO)O1
95.1%	57	COc1ccccc1NS(=O)(=O)c1cccc(NC(=O)Nc2ccccc2)c1
97.3%	84.2	O=C1CC(N(CCc2ccccc2)C(=S)Nc2ccccc2)C(=O)N1c1ccc(Br)cc1 (stereo not drawn)
65.6%	63.4	COc1ccc2[nH]c3nc(SCC(=O)Nc4ccc5c(c4)OCO5)nnc3c2c1
93.1%	50	CC(C)OCCCN1CC(=O)N2C(c3cccc([N+](=O)[O-])c3)c3[nH]c4ccccc4c3C[C@H]2C1=O (stereo partly drawn)
28% (inactive)	-1.95	O=C(CN1CCSC1=NCc1ccccc1)c1ccc(Cl)c(Cl)c1
86.6%	19.4	Cc1[nH]c2ccc(Br)cc2c(=O)c1CN1CCCCCC1
56.9%	-3.3	O=C(NCc1nc2ccccc2[nH]1)C1=C[C@H](C2CC2)C[C@H](OCc2ccc(CO)cc2)O1
81.6%	0.88	CCO[C@H]1OC(C(=O)NCc2nc3ccccc3[nH]2)=C[C@@H](c2ccc(Br)cc2)[C@@H]1CCCO
97%	75.3	Clc1ccc(-c2nnc(SCc3nc4ccccc4[nH]3)o2)c(Cl)c1
98.7%	88.3	Oc1c(Cl)cc(Cl)cc1CNc1nc2ccccc2[nH]1
100%	87.5	O=C(Cn1cc(C(=O)C(=O)N2CCOCC2)c2ccccc21)Nc1cccc(C(F)(F)F)c1
97.5%	63.2	O=C1[C@@H]2Cc3c([nH]c4ccccc34)C(c3cccc([N+](=O)[O-])c3)N2C(=O)CN1CCCO (stereo partly drawn)
90.3%	44.9	O=C(Nc1ccc(F)c(Cl)c1)C1CC(=O)n2c(nc3ccccc32)N1 (stereo not drawn)
44.8% (inactive)	-2.58	Clc1ccc(OCCSCc2nc3ccccc3[nH]2)cc1
94.6%	50.3	O=C(NCc1nc2ccccc2[nH]1)C1=C[C@H](c2ccc(Br)cc2)C[C@H](OCc2ccc(CO)cc2)O1
94.2%	97.7	COc1cccc(NC(=O)CSc2nnc3c(n2)[nH]c2ccc(C)cc23)c1
93.7%	50.4	O=C(NCc1nc2ccccc2[nH]1)C1=C[C@@H](c2ccc3c(c2)OCO3)C[C@@H](OCCCCO)O1
90.5%	36.5	CC(CC(=O)Nc1cccc(Br)c1)=NNC(=O)c1ccc(O)cc1O
89.2%	20.6	O=C(NCc1nc2ccccc2[nH]1)C1=C[C@@H](c2csc3ccccc23)C[C@@H](OCCCCO)O1
83.8%	21.6	CC(C)(C)[C@H]1C=C(C(=O)NCc2nc3ccccc3[nH]2)O[C@@H](OCc2ccc(CO)cc2)C1

Second part, the molecule before the results:

SMILES	inhibition (at 10 µM)	inhibition (inhibition, at 1 µM) [%]
CN1CC(=O)N2C(c3cccc([N+](=O)[O-])c3)c3[nH]c4ccccc4c3C[C@H]2C1=O (stereo partly drawn)	96.7%	57.7
Brc1cnc2nc(SCc3nc4ccccc4[nH]3)[nH]c2c1	84.9%	23.7
CC(=O)c1c[nH]c(C(=O)NCc2cccc(C(F)(F)F)c2)c1	92.7%	44.6
O=C1CC(SCc2nc3ccccc3[nH]2)C(=O)N1c1cccc(Cl)c1 (stereo not drawn)	52.6%	19.7
O=C(NCc1nc2ccccc2[nH]1)C1=C[C@@H](c2ccc(Br)cc2)C[C@@H](OCCCCO)O1	99.9%	84.2
CC(=O)c1ccc(N2CCN(C(=O)CCCn3c(=O)[nH]c4ccc(Br)cc4c3=O)CC2)cc1	97%	68.1
O=C(CCC(=O)Nc1cccc([N+](=O)[O-])c1)NN=Cc1cccs1	74.3%	6.25
CCOC(=O)N1CCC(Nc2c(Nc3ccc(F)cc3)c(=O)c2=O)CC1	72.7%	28.4
O=C(NCc1nc2ccccc2[nH]1)C1=C[C@H](c2ccc3c(c2)OCO3)C[C@H](OCCCCO)O1	79.4%	5.68
CCO[C@@H]1OC(C(=O)NCc2nc3ccccc3[nH]2)=C[C@H](c2ccc(Br)cc2)[C@H]1CCCO	64%	6.72
Cc1ccc(NC(=O)CN(C)C(=O)CCSc2ccc(F)cc2)cc1	67.3%	-1.05
O=C(C[C@H]1C(=O)N(Cc2ccccc2)C[C@@H]1c1ccc(Br)cc1)Nc1ccc(Br)cc1	94.4%	55.7
CN(Cc1cc(Cl)cc(Cl)c1)[C@H]1C[C@H]2c3[nH]c4ccccc4c3CCN2C(=O)[C@H]1CO	101%	95.1
COc1ccccc1-n1c(SCC(=O)Nc2ccc(Cl)cc2)nc(O)c(Cc2ccccc2)c1=O	67%	2.04
O=C(NCc1nc2ccccc2[nH]1)C1=C[C@@H](C2CC2)C[C@@H](OCc2ccc(CO)cc2)O1	93.6%	52.8
COc1ccc(OCC(O)CNC(=O)Nc2ccc(Cl)cc2)cc1 (stereo not drawn)	61.9%	28.9
C[C@H](O)[C@@H]1C(=O)N2CCc3c([nH]c4ccccc34)[C@@H]2C[C@@H]1N(C)Cc1ccc2c(c1)OCO2	80.4%	1.98

SMILES	inhibition (at 10 µM)	inhibition (inhibition, at 1 µM) [%]
CCCCCCCCCC1NC(C(=O)O)Cc2c1[nH]c1ccccc21 (stereo not drawn)	93.2%	64.7
O=C(CC=NOCc1ccc([N+](=O)[O-])cc1)Nc1ccc(Cl)cc1	86.5%	28.6
O=C(CC(=O)Nc1cccc(Cl)c1)NN=Cc1ccccc1	81.1%	28.2
O=C(NCCc1nc2ccccc2[nH]1)c1ccc(Cl)c([N+](=O)[O-])c1	99.6%	89.8
O=C(NCc1nc2ccccc2[nH]1)C1=C[C@H](c2csc3ccccc23)C[C@H](OCCCCO)O1	97.8%	71.1
O=C(NCc1nc2ccccc2[nH]1)C1=C[C@@H](c2ccccc2)C[C@@H](OCc2ccc(CO)cc2)O1	94.3%	44.6
COc1ccc(CNC(=O)CSc2nnc3c(n2)[nH]c2ccc(F)cc23)cc1	89.6%	47.5
O=C(NCc1nc2ccccc2[nH]1)C1=C[C@@H](c2ccc(Br)cc2)C[C@@H](OCc2ccc(CO)cc2)O1	97.6%	62.1
O=C(N/C(=C\c1cccnc1)c1nc2ccccc2[nH]1)c1cccc(Br)c1	71.7%	14.4
O=C(CC=NOCc1ccc([N+](=O)[O-])cc1)Nc1ccc(Br)cc1	84.7%	32.2
CC(C)(C)[C@@H]1C=C(C(=O)NCc2nc3ccccc3[nH]2)O[C@H](OCc2ccc(CO)cc2)C1	84.8%	30.8
O=C(NCc1nc2ccccc2[nH]1)C1=C[C@H](c2ccccc2)C[C@H](OCc2ccc(CO)cc2)O1	61.8%	7.32
O=C(NNC(=O)c1cc(-c2ccc(Cl)c(Cl)c2)nc2ccccc12)Nc1ccccc1	85.5%	59.7
O=C(Cn1cnc2ccccc21)Nc1cccc([N+](=O)[O-])c1	91.9%	44.9
O=C(NNC(=O)c1ccc(-n2cncn2)c([N+](=O)[O-])c1)c1ccc(Cl)cc1	73%	7.36
CN(CC(=O)Nc1ccc(Cl)cc1)C(=O)c1ccc(-n2cncn2)c([N+](=O)[O-])c1	92.5%	38
